Assay results published in patent US9938222B2 (BRISTOL-MYERS SQUIBB COMPANY, priority 2014, dated 2018).

Biological target: human GPR120 (Homo sapiens (Human), UniProt Q5NUL3)
Experiment: GPR120 pERK AlphaScreen SureFire Assay (human GPR120 pERK assay)
Assay type: cell-based
Details: CHO cells stably transfected with short form of human GPR120
Text: GPR120 activity was monitored by measuring phosphorylation of ERK (pERK), since G protein receptors are known to activate the ERK signaling cascade either directly and/or through recruitment of arrestin that serves as a scaffold for downstream signaling events.
GPR120 pERK AlphaScreen SureFire Assay
The human and mouse GPR120-mediated intracellular phosphorylated ERK assays were established using CHOA12 cells stably transfected with the short form of human or mouse GPR120 receptor. Cells were cultured in growth medium consisting of F-12 media (Invitrogen Cat. #11765) with 5% Charcoal/Dextran FBS (Invitrogen Cat. #12676-029), 500 μg/mL GENETICIN® (Life Technologies Cat. #10131-027) and 250 μg/mL Zeocin (Invitrogen Cat. #R250-01). Cells were cryo-preserved at a concentration of 2×10^7 cells/mL, in 90% Charcoal/Dextran FBS and 10% DMSO, and frozen in liquid nitrogen at a low passage number.
For the pERK assay, 2×10^7 cells/mL cryopreserved human and mouse cells were thawed rapidly in a 37° C. water bath and added to a T-225 flask containing 50 mL growth medium. The flasks were placed in a tissue culture incubator overnight (37° C., 5% CO2). The next day, cells were harvested with trypsin (Gibco Cat. #25300-054), resuspended in serum-containing growth medium and counted using a Cellometer and volume adjusted to a concentration of 0.6×10^6 cells/mL. Cells were plated into 384-well clear bottom tissue culture plates (BD Cat. #353962) at 50 μL/well, for a density of 30,000 cells/well using a MULTIDROP® and incubated for 16-18 hours (overnight) at 37° C. with 5% CO2. The next day, cells were serum starved in 30 μL of F-12 media without any serum or antibiotics for 2 hours at 37° C.
Test compounds were 3-fold, 11-point serially diluted in DMSO in a REMP assay plate (Matrix Cat. #4307) by Tecan and 5 μL was transferred into an ECHO source plate (Labcyte Cat. #LC-0200). Cells were then stimulated with 50 nL of compound dilutions using ECHO liquid handler for 7 min at 37° C. Compounds ranged from final assay concentrations of 33.33 μM to 0.56 nM.
The media was then dumped and cells lysed with 20 μL of 1× Lysis buffer from the AlphaScreen SureFire Phospho-ERK 1/2 Kit (Perkin Elmer Cat. #6760617M). The lysis buffer was diluted 5-fold with water before use. The plate was agitated on a shaker for 10 min after which 2 μL was transferred into a 384-well white proxiplate (Perkin Elmer Cat. #6008289). The SureFire assay reagent mix was prepared by mixing 60 parts Reaction Buffer, 10 parts Activation Buffer, 1 part Donor Beads, 1 part Acceptor Beads (Perkin Elmer Cat. #TGRES10K). 3.5 μL/well of this reagent mix was manually added to the proxiplate with a multichannel pipettor. Plates were spun down at 1000 rpm for 2 min, followed by light-protected incubation at room temperature for 2 hours. The plates were read on the Alpha-technology compatible Envision multilabel plate reader using AlphaScreen protocol according to manufacturer's specifications. The agonist effect of compounds was expressed as 100×(average sample-average blank)/(average total-average blank) where sample is the luminescence activity in the presence of test compound, blank is equal to the luminescence activity in the presence of DMSO control and the total is signal induced by 50 μM linolenic acid as reference compound. Activation data for the test compound over a range of concentrations was plotted as percentage activation of the test compound (100%=maximum response). After correcting for background, EC50 values were determined. The EC50 is defined as the concentration of test compound which produces 50% of the maximal response and was quantified using the 4 parameter logistic equation to fit the data.
The human and mouse GPR120-mediated intracellular phosphorylated ERK assays were also established using CHO-K1 cells stably transfected with the short form of human or mouse GPR120 receptor. […]

Sequence of human GPR120 (Q5NUL3 whole entry): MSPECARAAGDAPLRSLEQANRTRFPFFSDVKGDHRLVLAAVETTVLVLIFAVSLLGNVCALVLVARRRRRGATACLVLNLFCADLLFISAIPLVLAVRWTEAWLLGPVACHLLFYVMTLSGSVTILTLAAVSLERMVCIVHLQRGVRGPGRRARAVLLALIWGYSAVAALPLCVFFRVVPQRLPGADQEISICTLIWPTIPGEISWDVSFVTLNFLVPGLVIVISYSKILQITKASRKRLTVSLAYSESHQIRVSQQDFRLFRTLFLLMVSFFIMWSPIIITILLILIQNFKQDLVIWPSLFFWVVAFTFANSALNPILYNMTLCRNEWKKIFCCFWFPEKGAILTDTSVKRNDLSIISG

| Compound | EC50 | EC50 (μM) |
| --- | --- | --- |
| COCc1cc(OC(C)C)cc(-c2ccc(OC[C@@H]3C[C@H]3C(=O)O)cc2)c1 (racemic) [Example 86, Trans-2-(((3′-isopropoxy-5′-(methoxymethyl)-[1,1′-biphenyl]-4-yl)oxy)methyl) cyclopropanecarboxylic acid] | 3620 nM | – |
| COc1ccc(F)c(-c2ccc(CC[C@@H]3C[C@H]3C(=O)O)cc2)c1 (relative stereo) [Example 80, Trans-2-(2-(2′-fluoro-5′-methoxy-[1,1′-biphenyl]-4-yl)ethyl) cyclopropanecarboxylic acid] | 3260 nM | – |
| O=C(O)[C@H]1C[C@@H]1COc1ccc(-c2cc(Oc3ccccc3)ccc2F)cc1F (racemic) [Example 9, (Trans)-(+/−)-2-(((2′,3-difluoro-5′-phenoxy-[1,1′-biphenyl]-4-yl)oxy)methyl) cyclopropanecarboxylic acid] | 80 nM | – |
| CC1(C)Cc2c(F)cc(-c3ccc(OC[C@@H]4C[C@H]4C(=O)O)cc3)cc2O1 (racemic) [Example 21, Trans-2-((4-(4-fluoro-2,2-dimethyl-2,3-dihydrobenzofuran-6-yl)phenoxy)methyl) cyclopropanecarboxylic acid] | – | Not active |
| CC(C)Oc1cc(F)c(F)c(-c2ccc(OC[C@@H]3C[C@H]3C(=O)O)cc2F)c1 (racemic) [Example 61, Trans-2-(((2,2′,3′-trifluoro-5′-isopropoxy-[1,1′-biphenyl]-4-yl)oxy)methyl)cyclopropanecarboxylic acid] | 2780 nM | – |
| CC(C)Oc1cccc(-c2ccc(OC[C@@H]3C[C@H]3C(=O)O)cc2)c1 (racemic) [Example 73, Trans-2-(((3′-isopropoxy-[1,1′-biphenyl]-4-yl)oxy)methyl) cyclopropanecarboxylic acid] | 1380 nM | – |
| O=C(O)C1CC1COc1ccc(-c2cc(OC(F)(F)F)ccc2F)cc1 (single isomer, unassigned) [Example 53, Trans-2-(((2′-fluoro-5′-(trifluoromethoxy)-[1,1′-biphenyl]-4-yl)oxy)methyl)cyclopropanecarboxylic acid] | 330 nM | – |
| COCCc1cc(-c2cc(OC(C)C)ccc2F)ccc1OC[C@@H]1C[C@H]1C(=O)O (racemic) [Example 89, Trans-2-(((2′-fluoro-5′-isopropoxy-3-(2-methoxyethyl)-[1,1′-biphenyl]-4-yl)oxy)methyl) cyclopropanecarboxylic acid] | 3250 nM | – |
| O=C(O)[C@@H]1C[C@H]1CCc1ccc(-c2cc(Oc3ccccc3)ccc2F)cc1 (racemic) [Example 76, Trans-2-(2-(2′-fluoro-5′-phenoxy-[1,1′-biphenyl]-4-yl)ethyl) cyclopropanecarboxylic acid] | 470 nM | – |
| CC(C)Oc1ccc(F)c(-c2ccc(C[C@@H]3C[C@H]3CC(=O)O)cc2)c1 (single isomer, unassigned) [Example 35, Trans-(2-((2′-fluoro-5′-isopropoxy-[1,1′-biphenyl]-4-yl)methyl)cyclopropyl)acetic acid] | 330 nM | – |
| CC1(C)Cc2c(ccc(F)c2-c2ccc(OCC3CC3C(=O)O)cc2)O1 (stereo not shown) [Example 22, 2-((4-(5-Fluoro-2,2-dimethyl-2,3-dihydrobenzofuran-4-yl)phenoxy)methyl) cyclopropanecarboxylic acid] | 1250 nM | – |
| CC(C)Oc1ccc(F)c(-c2ccc(CC[C@@H]3C[C@@H]3C(=O)O)cc2)c1 (single isomer, unassigned) [Example 17] | 200 nM | – |
| O=C(O)[C@@H]1C[C@H]1COc1ccc(-c2cc(Oc3cc(F)cc(F)c3)ccc2F)cc1 (relative stereo) [Example 43, Trans-2-(((5′-(3,5-difluorophenoxy)-2′-fluoro-[1,1′-biphenyl]-4-yl)oxy)methyl)cyclopropanecarboxylic acid] | 280 nM | – |
| CC(C)Oc1ccc(F)c(-c2ccc(CC[C@H]3C[C@H]3C(=O)O)cc2)c1 (racemic) [Example 15, (Cis)-(+/−)-2-(2-(2′-fluoro-5′-isopropoxy-[1,1′-biphenyl]-4-yl)ethyl) cyclopropanecarboxylic acid] | 1690 nM | – |

Continued, values first:

| EC50 | EC50 (μM) | Compound |
| --- | --- | --- |
| 800 nM | – | COC(=O)c1cccc(-c2ccc(CC[C@@H]3C[C@H]3C(=O)O)cc2)c1 (racemic) [Example 130, Trans-2-(2-(3′-(methoxycarbonyl)-[1,1′-biphenyl]-4-yl)ethyl) cyclopropanecarboxylic acid] |
| 920 nM | – | CC(C)Oc1cccc(-c2ccc(CC[C@@H]3C[C@H]3C(=O)O)cc2)c1 (racemic) [Example 131, Trans-2-(2-(3′-isopropoxy-[1,1′-biphenyl]-4-yl)ethyl) cyclopropanecarboxylic acid] |
| 310 nM | – | Cc1ccc(Oc2cc(F)c(F)c(-c3ccc(OCC4CC4C(=O)O)c(F)c3)c2)cc1F (racemic) [Example 107] |
| 130 nM | – | Cc1ccc(Oc2ccc(F)c(-c3ccc(OCC4CC4C(=O)O)c(F)c3)c2)cc1F (single isomer, unassigned) [Example 101, Trans-2-(((2′,3-difluoro-5′-(3-fluoro-4-methylphenoxy)-[1,1′-biphenyl]-4-yl)oxy)methyl)cyclopropanecarboxylic acid] |
| 190 nM | – | O=C(O)[C@@H]1C[C@H]1COc1ccc(-c2cc(Oc3cccc(F)c3)cnc2Cl)cc1 (racemic) [Example 111, Trans-2-((4-(2-chloro-5-(3-fluorophenoxy)pyridin-3-yl)phenoxy)methyl) cyclopropanecarboxylic acid] |
| 1580 nM | – | O=C(O)[C@@H]1C[C@H]1CCc1ccc(-c2cccc(-n3cccc3)c2)cc1 (racemic) [Example 129, Trans-2-(2-(3′-(1H-pyrrol-1-yl)-[1,1′-biphenyl]-4-yl)ethyl) cyclopropanecarboxylic acid] |
| 90 nM | – | Cc1ccc(Oc2ccc(F)c(-c3ccc(OCC4C[C@@H]4C(=O)O)cc3)c2)cn1 (stereo partly shown) [Example 116] |
| 210 nM | – | O=C(O)[C@@H]1CC1COc1ccc(-c2cc(Oc3cccc(F)c3)cnc2Cl)cc1 (stereo partly shown) [Example 112] |
| 90 nM | – | O=C(O)C1CC1COc1ccc(-c2cc(Oc3cccc(F)c3)cc(F)c2F)cc1F (racemic) [Example 104, Trans-2-(((2′,3,3′-trifluoro-5′-(3-fluorophenoxy)-[1,1′-biphenyl]-4-yl)oxy)methyl)cyclopropanecarboxylic acid] |
| 510 nM | – | CC(C)Oc1ccc(Cl)c(-c2ccc(OC[C@@H]3C[C@H]3C(=O)O)cc2)c1 (racemic) [Example 119, Trans-2-(((2′-chloro-5′-isopropoxy-[1,1′-biphenyl]-4-yl)oxy)methyl) cyclopropanecarboxylic acid] |
| 1860 nM | – | CC(C)Oc1ccc(Cl)c(-c2ccc(CC[C@@H]3C[C@H]3C(=O)O)cc2)c1 (relative stereo) [Example 133, Trans-2-(2-(2′-chloro-5′-isopropoxy-[1,1′-biphenyl]-4-yl)ethyl) cyclopropanecarboxylic acid] |
| 120 nM | – | O=C(O)[C@H]1CC1COc1ccc(-c2cc(Oc3cccc(F)c3)cnc2Cl)cc1 (stereo partly shown) [Example 113] |
| 1350 nM | – | O=C(O)[C@@H]1C[C@H]1COc1ccc(-c2cc(C(F)(F)F)cnc2Cl)cc1 (racemic) [Example 122, Trans-2-((4-(2-chloro-5-(trifluoromethyl)pyridin-3-yl)phenoxy)methyl)cyclopropanecarboxylic acid] |
| 2440 nM | – | CC(C)Oc1cc(Cl)cc(-c2ccc(CC[C@@H]3C[C@H]3C(=O)O)cc2)c1 (relative stereo) [Example 132, Trans-2-(2-(3′-chloro-5′-isopropoxy-[1,1′-biphenyl]-4-yl)ethyl) cyclopropanecarboxylic acid] |
